Experiments:
Type in all cases: biochemical
EGFR L858R/T790M mutant = EGFR L858R/T790M mutant (Homo sapiens (Human), UniProt P00533, L858R/T790M); experiment: HotSpot radiometric kinase assay, EGFR L858R/T790M mutant; details: 10 μM ATP
Procedure, shortened: (§1)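 Radiometric filter-binding read-out: incorporated 33P was retained on P81 ion-exchange paper after washing away unbound phosphate. Reactions ran 120 min at room temperature with 10 μM final ATP, following ~20 min compound preincubation in Hepes pH 7.5 buffer containing 1% DMSO. IC50 from fitted curves.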

[1] = target: EGFR L858R/T790M/C797S mutant (Homo sapiens (Human), UniProt P00533, C797S/L858R/T790M); experiment: HotSpot radiometric kinase assay, EGFR L858R/T790M/C797S mutant; details: 10 μM ATP
Procedure, shortened: as §1

[2] = target: EGFR Δ746-750/C797S mutant (Homo sapiens (Human), UniProt P00533, C797S/DEL746-750); experiment: HotSpot radiometric kinase assay, EGFR Δ746-750/C797S mutant; details: 10 μM ATP
Procedure, shortened: as §1

EGFR WT = EGFR WT (Homo sapiens (Human), UniProt P00533); experiment: HotSpot radiometric kinase assay (Reaction Biology), EGFR WT; details: 10 μM ATP
Procedure, shortened: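 IC50 values derive from curve fits of 33P incorporation measured by P81 filter binding. ATP was 10 μM final; incubation lasted 120 min at room temperature after ~20 min compound preincubation.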

CLK3 = CLK3 (Homo sapiens (Human), UniProt P49761); experiment: Inhibition of CLK3 kinase activity evaluated at Nanosyn (ADP-Glo); details: ADP-Glo luminescence
Procedure, shortened: (§2)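 Percent inhibition derived from luminescent ADP detection (ADP-Glo), normalised to DMSO-only and enzyme-free wells. Reactions ran in HEPES pH 7.5 buffer with Mg2+, Triton X-100 and BSA, 1% DMSO, ATP-initiated, for an assay-specific time.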

CLK2 = CLK2 (Homo sapiens (Human), UniProt P49760); experiment: Inhibition of CLK2 kinase activity evaluated at Nanosyn (ADP-Glo); details: ADP-Glo luminescence
Procedure, shortened: as §2

ALK = ALK (Homo sapiens (Human), UniProt Q9UM73); experiment: HotSpot radiometric kinase assay, inhibition of ALK kinase activity; details: 10 μM ATP
Experimental: Briefly, specific kinase/substrate pairs along with required cofactors were prepared in reaction buffer; 20 mM Hepes pH 7.5, 10 mM […], 1 mM EGTA, 0.02% Brij35, 0.02 mg/ml BSA, 0.1 mM Na3VO4, 2 mM DTT, 1% DMSO. Compounds were delivered into the reaction, followed […] later by addition of a mixture of ATP (Sigma, St. Louis MO) and ^33P ATP (Perkin Elmer, Waltham MA) to a final concentration of 10 μM. Reactions were carried out at room temperature for 120 min, followed by spotting of the reactions onto P81 ion exchange filter paper (Whatman Inc., Piscataway, NJ). Unbound phosphate was removed by extensive washing of filters in 0.75% phosphoric acid. […] IC50 values and curve fits were obtained using Prism (GraphPad Software).

EGFR (D770_N771insNPG) = EGFR (D770_N771insNPG) (Homo sapiens (Human), UniProt P00533, INS770NPG); experiment: HotSpot radiometric kinase assay, EGFR (D770_N771insNPG); details: 10 μM ATP, read-out: EGFR (Δ770_N771insNPG) IC50
Procedure, shortened: as §1

EGFR Δ746-750 mutant = EGFR Δ746-750 mutant (Homo sapiens (Human), UniProt P00533, DEL746-750); experiment: HotSpot radiometric kinase assay, EGFR Δ746-750 mutant; details: 10 μM ATP
Procedure, shortened: as §1

EGFR L858R mutant = EGFR L858R mutant (Homo sapiens (Human), UniProt P00533, L858R); experiment: HotSpot radiometric kinase assay, EGFR L858R mutant; details: 10 μM ATP
Procedure, shortened: as §1

CLK4 = CLK4 (Homo sapiens (Human), UniProt Q9HAZ1); experiment: Inhibition of CLK4 kinase activity evaluated at Nanosyn (ADP-Glo); details: ADP-Glo luminescence
Procedure, shortened: as §2

CLK1 = CLK1 (Homo sapiens (Human), UniProt P49759); experiment: Inhibition of CLK1 kinase activity evaluated at Nanosyn (ADP-Glo); details: ADP-Glo luminescence
Procedure, shortened: as §2

EGFR Δ746-750 mutant, sequence (P00533 other isoform, or with tags, fused parts or gaps del 1-668/del 746-750 limits assumed): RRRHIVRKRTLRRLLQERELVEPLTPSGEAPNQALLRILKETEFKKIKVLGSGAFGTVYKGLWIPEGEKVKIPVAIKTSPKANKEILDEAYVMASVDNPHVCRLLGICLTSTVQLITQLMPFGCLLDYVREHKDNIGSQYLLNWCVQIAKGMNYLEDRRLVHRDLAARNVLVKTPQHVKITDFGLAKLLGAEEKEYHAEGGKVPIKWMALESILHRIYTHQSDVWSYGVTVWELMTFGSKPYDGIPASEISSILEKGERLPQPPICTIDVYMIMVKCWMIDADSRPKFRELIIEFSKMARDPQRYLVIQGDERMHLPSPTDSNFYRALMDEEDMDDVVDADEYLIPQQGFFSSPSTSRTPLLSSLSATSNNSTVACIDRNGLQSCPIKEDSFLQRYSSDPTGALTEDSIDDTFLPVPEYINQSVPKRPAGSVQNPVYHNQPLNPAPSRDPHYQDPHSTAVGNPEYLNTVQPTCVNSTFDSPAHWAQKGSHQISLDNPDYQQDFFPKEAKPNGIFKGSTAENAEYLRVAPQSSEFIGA
EGFR Δ746-750/C797S mutant, sequence (P00533 other isoform, or with tags, fused parts or gaps C797S/del 1-668/del 746-750 limits assumed): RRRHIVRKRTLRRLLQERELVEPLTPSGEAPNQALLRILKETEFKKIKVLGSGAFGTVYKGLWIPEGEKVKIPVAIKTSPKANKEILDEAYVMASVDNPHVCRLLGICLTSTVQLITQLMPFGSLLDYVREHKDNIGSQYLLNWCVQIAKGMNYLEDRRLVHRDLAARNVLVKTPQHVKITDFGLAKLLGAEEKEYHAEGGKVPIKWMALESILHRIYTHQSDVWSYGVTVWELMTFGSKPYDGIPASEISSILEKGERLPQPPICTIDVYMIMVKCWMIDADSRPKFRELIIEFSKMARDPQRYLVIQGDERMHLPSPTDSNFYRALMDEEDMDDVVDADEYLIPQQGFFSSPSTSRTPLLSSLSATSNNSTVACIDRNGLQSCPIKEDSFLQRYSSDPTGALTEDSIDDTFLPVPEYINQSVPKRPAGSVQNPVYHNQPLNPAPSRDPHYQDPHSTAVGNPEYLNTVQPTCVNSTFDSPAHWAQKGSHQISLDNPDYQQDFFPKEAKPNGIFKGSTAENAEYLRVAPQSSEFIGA
CLK4, sequence (Q9HAZ1 whole entry): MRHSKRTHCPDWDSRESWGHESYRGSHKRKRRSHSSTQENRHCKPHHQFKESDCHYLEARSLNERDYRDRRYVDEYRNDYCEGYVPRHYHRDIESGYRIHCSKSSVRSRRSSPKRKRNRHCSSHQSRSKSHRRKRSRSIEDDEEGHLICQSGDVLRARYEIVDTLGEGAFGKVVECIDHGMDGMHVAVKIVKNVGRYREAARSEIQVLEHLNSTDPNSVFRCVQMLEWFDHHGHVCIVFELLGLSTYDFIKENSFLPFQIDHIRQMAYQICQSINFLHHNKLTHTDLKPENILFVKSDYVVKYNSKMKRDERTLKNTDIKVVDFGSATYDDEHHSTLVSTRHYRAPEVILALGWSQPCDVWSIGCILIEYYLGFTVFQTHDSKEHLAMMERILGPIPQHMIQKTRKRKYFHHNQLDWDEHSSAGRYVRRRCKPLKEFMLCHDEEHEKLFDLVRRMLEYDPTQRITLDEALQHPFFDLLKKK
ALK, sequence (Q9UM73 19-1620): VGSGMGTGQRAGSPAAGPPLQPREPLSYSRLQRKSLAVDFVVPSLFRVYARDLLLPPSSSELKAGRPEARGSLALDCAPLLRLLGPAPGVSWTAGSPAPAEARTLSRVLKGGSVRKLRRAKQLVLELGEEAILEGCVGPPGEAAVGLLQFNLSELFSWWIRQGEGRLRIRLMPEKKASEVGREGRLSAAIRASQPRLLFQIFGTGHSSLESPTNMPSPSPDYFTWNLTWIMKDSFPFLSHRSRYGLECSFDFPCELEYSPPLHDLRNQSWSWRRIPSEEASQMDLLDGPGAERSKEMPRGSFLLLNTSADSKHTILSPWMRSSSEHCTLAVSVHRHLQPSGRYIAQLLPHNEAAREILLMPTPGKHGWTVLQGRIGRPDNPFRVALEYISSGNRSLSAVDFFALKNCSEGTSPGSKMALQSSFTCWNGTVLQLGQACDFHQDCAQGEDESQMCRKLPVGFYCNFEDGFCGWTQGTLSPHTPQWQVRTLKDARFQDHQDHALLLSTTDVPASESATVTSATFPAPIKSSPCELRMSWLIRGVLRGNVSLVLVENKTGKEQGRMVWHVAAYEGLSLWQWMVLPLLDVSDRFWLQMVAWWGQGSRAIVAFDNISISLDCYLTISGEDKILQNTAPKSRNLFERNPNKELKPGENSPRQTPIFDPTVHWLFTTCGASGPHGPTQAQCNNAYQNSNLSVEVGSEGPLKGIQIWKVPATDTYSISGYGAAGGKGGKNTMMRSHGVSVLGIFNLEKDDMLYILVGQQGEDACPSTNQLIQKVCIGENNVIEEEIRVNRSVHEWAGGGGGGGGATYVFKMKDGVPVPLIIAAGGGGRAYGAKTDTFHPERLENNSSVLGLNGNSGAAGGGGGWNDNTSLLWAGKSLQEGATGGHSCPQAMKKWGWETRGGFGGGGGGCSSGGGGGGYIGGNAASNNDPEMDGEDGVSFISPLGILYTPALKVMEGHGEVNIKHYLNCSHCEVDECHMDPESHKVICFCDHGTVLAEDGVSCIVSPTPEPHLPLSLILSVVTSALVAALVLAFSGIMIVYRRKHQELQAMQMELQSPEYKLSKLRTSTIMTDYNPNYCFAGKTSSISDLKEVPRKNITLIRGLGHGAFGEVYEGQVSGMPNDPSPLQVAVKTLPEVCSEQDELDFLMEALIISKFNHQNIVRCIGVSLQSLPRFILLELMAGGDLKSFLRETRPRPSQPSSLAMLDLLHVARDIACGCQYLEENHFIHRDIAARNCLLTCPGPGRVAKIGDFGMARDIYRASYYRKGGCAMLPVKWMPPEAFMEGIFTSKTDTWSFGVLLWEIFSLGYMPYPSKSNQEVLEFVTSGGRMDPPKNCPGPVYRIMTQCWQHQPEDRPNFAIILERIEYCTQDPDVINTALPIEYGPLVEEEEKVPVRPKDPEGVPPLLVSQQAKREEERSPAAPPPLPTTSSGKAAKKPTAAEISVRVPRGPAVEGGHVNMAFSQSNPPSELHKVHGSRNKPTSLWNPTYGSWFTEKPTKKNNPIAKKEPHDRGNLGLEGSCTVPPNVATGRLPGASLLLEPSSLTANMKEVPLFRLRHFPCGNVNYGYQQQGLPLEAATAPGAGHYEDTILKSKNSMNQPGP
CLK3, sequence (P49761 whole entry): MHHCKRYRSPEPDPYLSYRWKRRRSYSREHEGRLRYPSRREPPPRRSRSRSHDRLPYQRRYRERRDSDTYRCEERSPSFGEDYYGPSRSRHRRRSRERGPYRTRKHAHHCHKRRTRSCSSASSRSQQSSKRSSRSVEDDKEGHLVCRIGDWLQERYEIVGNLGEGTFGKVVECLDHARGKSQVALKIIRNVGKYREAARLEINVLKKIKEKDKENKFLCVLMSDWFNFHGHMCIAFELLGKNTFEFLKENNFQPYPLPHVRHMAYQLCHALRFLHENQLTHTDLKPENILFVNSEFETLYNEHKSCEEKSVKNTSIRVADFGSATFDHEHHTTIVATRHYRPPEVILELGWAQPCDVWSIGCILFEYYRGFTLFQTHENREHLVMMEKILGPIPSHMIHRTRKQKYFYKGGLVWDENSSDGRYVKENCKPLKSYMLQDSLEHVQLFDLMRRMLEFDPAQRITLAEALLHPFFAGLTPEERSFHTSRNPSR
EGFR L858R mutant, sequence (P00533 25-1210 L858R): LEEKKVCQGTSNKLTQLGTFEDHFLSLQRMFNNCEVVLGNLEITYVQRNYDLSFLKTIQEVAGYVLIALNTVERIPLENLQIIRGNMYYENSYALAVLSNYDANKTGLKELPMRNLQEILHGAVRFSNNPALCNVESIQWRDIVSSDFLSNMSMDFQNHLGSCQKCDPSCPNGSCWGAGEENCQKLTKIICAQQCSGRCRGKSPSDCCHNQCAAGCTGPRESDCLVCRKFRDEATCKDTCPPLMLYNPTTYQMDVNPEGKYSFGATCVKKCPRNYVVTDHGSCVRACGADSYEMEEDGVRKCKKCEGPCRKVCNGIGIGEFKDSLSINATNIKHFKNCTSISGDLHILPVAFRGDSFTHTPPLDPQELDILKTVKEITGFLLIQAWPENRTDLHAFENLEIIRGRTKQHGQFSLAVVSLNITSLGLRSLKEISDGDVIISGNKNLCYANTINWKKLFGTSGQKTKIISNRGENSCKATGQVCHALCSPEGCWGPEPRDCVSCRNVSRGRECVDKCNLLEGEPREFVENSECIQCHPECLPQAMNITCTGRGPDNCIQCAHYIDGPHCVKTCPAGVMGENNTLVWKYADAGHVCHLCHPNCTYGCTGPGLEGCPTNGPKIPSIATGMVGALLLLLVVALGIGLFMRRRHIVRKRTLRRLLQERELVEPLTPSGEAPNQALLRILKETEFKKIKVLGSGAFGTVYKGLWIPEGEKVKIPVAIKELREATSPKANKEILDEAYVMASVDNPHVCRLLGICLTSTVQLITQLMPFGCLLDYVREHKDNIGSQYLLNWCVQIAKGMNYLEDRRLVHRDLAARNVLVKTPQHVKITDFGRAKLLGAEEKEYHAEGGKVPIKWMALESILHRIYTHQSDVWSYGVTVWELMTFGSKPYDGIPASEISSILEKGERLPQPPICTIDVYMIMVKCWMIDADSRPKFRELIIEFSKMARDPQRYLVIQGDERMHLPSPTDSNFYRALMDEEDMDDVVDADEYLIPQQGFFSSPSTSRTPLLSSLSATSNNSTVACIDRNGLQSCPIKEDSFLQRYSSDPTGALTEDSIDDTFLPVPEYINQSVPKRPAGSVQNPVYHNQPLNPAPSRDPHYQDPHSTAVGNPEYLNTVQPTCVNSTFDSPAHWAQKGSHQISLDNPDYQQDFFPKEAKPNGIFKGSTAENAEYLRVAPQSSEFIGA

IC50 (EGFR L858R/T790M mutant) | IC50 [1] | IC50 [2] | IC50 (EGFR WT) | IC50 (CLK3) | IC50 (CLK2) | IC50 (ALK) | IC50 (EGFR (D770_N771insNPG)) | IC50 (EGFR Δ746-750 mutant) | IC50 (EGFR L858R mutant) | IC50 (CLK4) | IC50 (CLK1) | SMILES
0.11 nM | 0.19 nM | 0.39 nM | 3.16 nM | 5.21 nM | 0.02 nM | 0.99 nM | 9.08 nM | 0.59 nM | 0.44 nM | 0.32 nM | 0.13 nM | CC(C)Oc1nn(CCO)c2c1/C=C/c1n[nH]c3ccc(cc13)-c1cnn(C)c1O[C@@H](C)CN(C)C2 [Example 147, 2-{(10S,17E)-8,10,12-trimethyl-16-[(propan-2-yl)oxy]-2,8,10,11,12,13-hexahydro-14H-3,5-ethenotripyrazolo[3,4-f:3′,4′-j:4″,3″-n][1,4]oxazacyclopentadecin-14-yl}ethan-1-ol]
1.54 nM | 0.74 nM | 14.1 nM | 160 nM | 1000 nM | 0.07 nM | 3.72 nM | 116 nM | 27 nM | 34.7 nM | 0.38 nM | 0.14 nM | C[C@H]1CN(C)Cc2c(c(C#N)nn2C)/C=C/c2n[nH]c3ccc(cc23)-c2cnn(C)c2O1 [Example 159, (10S,17E)-8,10,12,14-tetramethyl-2,10,11,12,13,14-hexahydro-8H-3,5-ethenotripyrazolo[3,4-f:3′,4′-j:4″,3″-n][1,4]oxazacyclopentadecine-16-carbonitrile]
0.44 nM | 0.37 nM | 0.63 nM | 2.43 nM | 115 nM | 1.28 nM | 2.04 nM | 28.9 nM | 0.47 nM | 2.22 nM | 5.39 nM | 2.02 nM | CCN1Cc2c(c(OC(C)C)nn2CCO)/C=C/c2n[nH]c3cc(F)c(cc23)-c2cnn(C)c2O[C@@H](C)C1 [Example 216, 2-{(10S,17E)-12-ethyl-19-fluoro-8,10-dimethyl-16-[(propan-2-yl)oxy]-2,8,10,11,12,13-hexahydro-14H-3,5-ethenotripyrazolo[3,4-f:3′,4′-j:4″,3″- n][1,4]oxazacyclopentadecin-14-yl}ethan-1-ol]
0.2 nM | 0.17 nM | 0.48 nM | 0.77 nM | 592 nM | 2.51 nM | 2.47 nM | 8.31 nM | 0.22 nM | 0.35 nM | 7.25 nM | 2.37 nM | CCOc1nn([C@@H](C)CO)c2c1/C=C/c1n[nH]c3cc(F)c(cc13)-c1cnn(C)c1O[C@@H](C)CN(C)C2 [Example 214, (2S)-2-[(10S,17E)-16-ethoxy-19-fluoro-8,10,12-trimethyl-2,8,10,11,12,13-hexahydro-14H-3,5-ethenotripyrazolo[3,4-f:3′,4′-j:4″,3″- n][1,4]oxazacyclopentadecin-14-yl]propan-1-ol]
5.3 nM | 3.84 nM | 5.13 nM | 7.25 nM | 146 nM | 4.51 nM | 1.31 nM | 21.2 nM | 3.02 nM | 4.73 nM | 5.62 nM | 2.05 nM | CCN1Cc2c(c(OC(C)C)nn2[C@@H](C)CO)/C=C/c2n[nH]c3cc(F)c(cc23)-c2cnn(C)c2O[C@@H](C)C1 [Example 219, (2S)-2-{(10S,17E)-12-ethyl-19-fluoro-8,10-dimethyl-16-[(propan-2-yl)oxy]-2,8,10,11,12,13-hexahydro-14H-3,5-ethenotripyrazolo[3,4-f:3′,4′-j:4″,3″- n][1,4]oxazacyclopentadecin-14-yl}propan-1-ol]
0.26 nM | 2.12 nM | 1.25 nM | 2.34 nM | 19.4 nM | 0.04 nM | 1.05 nM | 8.5 nM | 0.63 nM | 0.61 nM | 0.33 nM | 0.14 nM | CCOc1nn(CCO)c2c1/C=C/c1n[nH]c3ccc(cc13)-c1cnn(C)c1O[C@@H](C)CN(C)C2 [Example 119, 2-[(10S,17E)-16-ethoxy-8,10,12-trimethyl-2,8,10,11,12,13-hexahydro-14H-3,5-ethenotripyrazolo[3,4-f:3′,4′-j:4″,3″-n][1,4]oxazacyclopentadecin-14-yl]ethan-1-ol]
0.33 nM | 2.62 nM | 5.8 nM | 41.3 nM | 112 nM | 0.08 nM | 1.82 nM | 99.8 nM | 7.76 nM | 7.91 nM | 0.27 nM | 0.12 nM | Cc1nn(C)c2c1/C=C/c1n[nH]c3ccc(cc13)-c1cnn(C)c1O[C@@H](C)CN(C)C2 [Example 120, (10S,17E)-8,10,12,14,16-pentamethyl-2,10,11,12,13,14-hexahydro-8H-3,5-ethenotripyrazolo[3,4-f:3′,4′-j:4″,3″- n][1,4]oxazacyclopentadecine]
1.41 nM | 0.69 nM | 1.93 nM | 6.46 nM | 194 nM | 1 nM | 1.49 nM | 59.9 nM | 4.08 nM | 2.01 nM | 1.53 nM | 0.48 nM | CC(C)Oc1nn([C@@H](C)CO)c2c1/C=C/c1n[nH]c3cc(F)c(cc13)-c1cnn(C)c1O[C@@H](C)CN(C)C2 [Example 200, (2S)-2-{(10S,17E)-19-fluoro-8,10,12-trimethyl-16-[(propan-2-yl)oxy]-2,8,10,11,12,13-hexahydro-14H-3,5-ethenotripyrazolo[3,4-f:3′,4′-j:4″,3″-n][1,4]oxazacyclopentadecin-14-yl}propan-1-ol]
24 nM | 12.6 nM | 90.8 nM | 1210 nM | 230 nM | 0.19 nM | 21.6 nM | > 1000 nM | 173 nM | 182 nM | 0.61 nM | 0.29 nM | Cc1onc2c1/C=C/c1n[nH]c3ccc(cc13)-c1cnn(C)c1O[C@@H](C)CN(C)C2 [Example 134, (10S,17E)-8,10,12,16-tetramethyl-2,8,10,11,12,13-hexahydro-3,5-etheno[1,2]oxazolo[3,4-f]dipyrazolo[3,4-j:4′,3′-n][1,4]oxazacyclopentadecine]
1.29 nM | 2.5 nM | 1.68 nM | 12.5 nM | 56.2 nM | 0.68 nM | 1.05 nM | 84.4 nM | 2.23 nM | 1.8 nM | 2.6 nM | 0.87 nM | CC(C)Oc1nn(CCO)c2c1/C=C/c1n[nH]c3cc(F)c(cc13)-c1cnn(C)c1O[C@@H](C)CN(C)C2 [Example 181, 2-{(10S,17E)-19-fluoro-8,10,12-trimethyl-16-[(propan-2-yl)oxy]-2,8,10,11,12,13-hexahydro-14H-3,5-ethenotripyrazolo[3,4-f:3′,4′-j:4″,3″- n][1,4]oxazacyclopentadecin-14-yl}ethan-1-ol]
1.49 nM | 0.89 nM | 1.93 nM | 1.71 nM | 964 nM | 2.1 nM | 2.58 nM | 3.75 nM | 0.69 nM | 1.7 nM | 9.08 nM | 3.33 nM | CCOc1nn([C@@H](C)CO)c2c1/C=C/c1n[nH]c3cc(F)c(cc13)-c1cnn(C)c1O[C@@H](C)CN(CC)C2 [Example 215]
